Results from US9340547B2, “Pyrrolotriazinone derivatives as inhibitors P13K” (Almirall, S.A., priority 2011, dated 2016).
Read-outs that look alike come from different tables or passages of the source.

Biological target: T1, PI3Kδ (PI3 Kd) (Homo sapiens, UniProt O00329)
T1 construct: purchased Millipore
Assay: PI3K HTRF enzymatic inhibition assay (cell-free), PI3Kd
Format: biochemical
Description: PI3K α, β, δ and γ Enzymatic Inhibition Assays
Compounds were screened for their ability to inhibit PI3Kα (PI3Kα), PI3Kβ (PI3 Kb), PI3Kδ (PI3 Kd) and PI3Kγ (PI3 Kg) using a cell-free based PI3K HTRF™ assay (Millipore, ref. #33-017) All reagents to perform the reactions were prepared according to the manufacturer protocol. All PI3K enzymes were recombinant and were purchased at Millipore.
These concentrations were final in the assay. • 3) A reservoir plate containing Adenosine TriPhosphate (ATP) diluted in the Millipore kit buffer was prepared for each isoform. […] Incubation was done for 8 minutes (for all four isoforms) then the reaction was stopped by addition of the Stop solution. The Detection solution was added. These solutions were prepared previously according to the kit specifications.

T1 sequence (O00329 whole entry): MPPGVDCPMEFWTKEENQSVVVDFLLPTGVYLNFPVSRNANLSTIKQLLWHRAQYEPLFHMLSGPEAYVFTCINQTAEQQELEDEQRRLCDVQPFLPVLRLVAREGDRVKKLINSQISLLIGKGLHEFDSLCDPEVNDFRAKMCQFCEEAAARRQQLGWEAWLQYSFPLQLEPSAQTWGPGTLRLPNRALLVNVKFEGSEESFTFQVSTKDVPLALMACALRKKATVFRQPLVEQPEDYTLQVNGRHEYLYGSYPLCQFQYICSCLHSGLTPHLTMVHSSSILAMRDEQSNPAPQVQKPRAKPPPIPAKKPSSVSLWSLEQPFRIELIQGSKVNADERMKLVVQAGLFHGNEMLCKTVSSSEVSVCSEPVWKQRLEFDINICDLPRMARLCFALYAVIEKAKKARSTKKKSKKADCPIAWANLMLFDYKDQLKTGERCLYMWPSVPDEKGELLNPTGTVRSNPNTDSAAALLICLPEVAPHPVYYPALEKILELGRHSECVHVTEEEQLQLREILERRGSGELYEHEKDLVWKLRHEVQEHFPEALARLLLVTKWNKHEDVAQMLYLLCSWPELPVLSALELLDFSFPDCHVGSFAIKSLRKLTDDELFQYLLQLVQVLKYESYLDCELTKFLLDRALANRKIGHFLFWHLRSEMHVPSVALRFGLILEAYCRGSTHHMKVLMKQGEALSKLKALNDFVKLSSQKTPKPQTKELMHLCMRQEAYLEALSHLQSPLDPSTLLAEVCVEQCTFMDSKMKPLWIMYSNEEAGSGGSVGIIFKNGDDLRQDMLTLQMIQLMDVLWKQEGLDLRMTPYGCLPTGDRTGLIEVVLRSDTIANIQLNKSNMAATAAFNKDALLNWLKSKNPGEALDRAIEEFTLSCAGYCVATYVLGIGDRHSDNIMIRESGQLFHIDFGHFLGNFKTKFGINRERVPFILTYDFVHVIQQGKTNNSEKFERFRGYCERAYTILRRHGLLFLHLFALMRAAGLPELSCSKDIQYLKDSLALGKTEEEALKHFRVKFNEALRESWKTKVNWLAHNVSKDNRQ
T1 sequence (P27986 whole entry partner): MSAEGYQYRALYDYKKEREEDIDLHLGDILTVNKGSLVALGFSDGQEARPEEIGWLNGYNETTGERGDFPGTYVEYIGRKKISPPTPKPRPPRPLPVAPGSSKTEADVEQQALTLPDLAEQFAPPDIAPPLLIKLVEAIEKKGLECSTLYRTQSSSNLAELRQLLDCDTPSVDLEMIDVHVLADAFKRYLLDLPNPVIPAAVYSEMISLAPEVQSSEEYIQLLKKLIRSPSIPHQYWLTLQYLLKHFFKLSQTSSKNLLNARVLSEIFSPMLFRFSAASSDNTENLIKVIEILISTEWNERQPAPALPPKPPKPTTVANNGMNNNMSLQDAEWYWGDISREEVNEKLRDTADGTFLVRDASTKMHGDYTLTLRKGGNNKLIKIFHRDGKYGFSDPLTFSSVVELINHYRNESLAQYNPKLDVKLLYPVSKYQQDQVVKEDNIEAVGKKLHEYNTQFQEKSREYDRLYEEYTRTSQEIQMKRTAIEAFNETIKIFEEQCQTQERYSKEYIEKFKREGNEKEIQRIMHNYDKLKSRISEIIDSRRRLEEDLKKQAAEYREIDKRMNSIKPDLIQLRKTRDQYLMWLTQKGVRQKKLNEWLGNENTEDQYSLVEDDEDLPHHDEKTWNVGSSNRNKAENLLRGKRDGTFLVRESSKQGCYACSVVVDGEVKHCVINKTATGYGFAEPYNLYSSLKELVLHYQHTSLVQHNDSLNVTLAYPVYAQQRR

Structure (SMILES) | IC50 | IC50 (recombinant PI3 Kd 0.60 nM, PIP2 2 μM, ATP 20 μM, 8 min incubation)
C[C@H](Nc1ncnc(N)c1C#N)c1nn2ccc(C#N)c2c(=O)n1C1CCCOC1 (single isomer, unassigned) [Example 129] | 38 nM | –
Cc1ccccc1-n1c(Cn2cnc3c(N)ncnc32)nn2ccc(Cl)c2c1=O [Example 1, 2-((6-Amino-9H-purin-9-yl)methyl)-5-chloro-3-o-tolylpyrrolo[1,2-f][1,2,4]triazin-4(3H)-one] | 120 nM | –
Cc1ccccc1-n1c(CSc2ncnc3[nH]cnc23)nn2ccc(C)c2c1=O [Example 11, 2-((9H-Purin-6-ylthio)methyl)-5-methyl-3-o-tolylpyrrolo[1,2-f][1,2,4]triazin-4(3H)-one] | – | 119 nM
CC[C@H](Nc1nc(N)nc2[nH]cnc12)c1nn2cccc2c(=O)n1-c1ccccc1 [Example 17, (S)-2-(1-(2-Amino-9H-purin-6-ylamino)propyl)-3-phenylpyrrolo[1,2-f][1,2,4]triazin-4(3H)-one] | 9 nM | –
Cc1ccccc1-n1c(Cn2cnc3c(N)ncnc32)nn2ccc(C(F)(F)F)c2c1=O [Example 25, 2-((6-Amino-9H-purin-9-yl)methyl)-3-o-tolyl-5-(trifluoromethyl)pyrrolo[1,2-f][1,2,4]triazin-4(3H)-one] | 347 nM | –
Nc1ncnc2c1ncn2Cc1nn2ccc(Cl)c2c(=O)n1Cc1ccccc1 [Example 29] | 376 nM | –
Cc1ccccc1-n1c(Cn2cnc3c(N)ncnc32)nn2ccnc2c1=O [Example 31, 2-((6-amino-9H-purin-9-yl)methyl)-3-o-tolylimidazo[1,2-f][1,2,4]triazin-4(3H)-one] | 6570 nM | –
C[C@H](Nc1ncnc(N)c1C#N)c1nn2cccc2c(=O)n1-c1ccccn1 [Example 43, (S)-4-Amino-6-(1-(4-oxo-3-(pyridin-2-yl)-3,4-dihydropyrrolo[1,2-f][1,2,4]triazin-2-yl)ethylamino)pyrimidine-5-carbonitrile] | 11 nM | –
O=c1c2cccn2nc([C@@H]2CCCN2c2ncnc3[nH]cnc23)n1-c1ccccc1 [Example 44, (S)-2-(1-(9H-Purin-6-yl)pyrrolidin-2-yl)-3-phenylpyrrolo[1,2-f][1,2,4]triazin-4(3H)-one] | 29 nM | –
C[C@H](Nc1ncnc(N)c1C#N)c1nn2ccc(C(F)F)c2c(=O)n1-c1ccccc1 [Example 47, (S)-4-Amino-6-(1-(5-(difluoromethyl)-4-oxo-3-phenyl-3,4-dihydropyrrolo[1,2-f][1,2,4]triazin-2-yl)ethylamino)pyrimidine-5-carbonitrile] | 1 nM | –
C[C@H](Nc1ncnc(N)c1C#N)c1nn2ccnc2c(=O)n1-c1ccccc1 [Example 50, (S)-4-amino-6-(1-(4-oxo-3-phenyl-3,4-dihydroimidazo[1,2-f][1,2,4]triazin-2-yl)ethylamino)pyrimidine-5-carbonitrile] | 57 nM | –
C[C@H](Nc1ccnc2ccnn12)c1nn2cccc2c(=O)n1-c1ccccc1 [Example 54, (S)-3-Phenyl-2-(1-(pyrazolo[1,5-a]pyrimidin-7-ylamino)ethyl)pyrrolo[1,2-f][1,2,4]triazin-4(3H)-one] | 60 nM | –
Nc1nc(N2CCC[C@H]2c2nn3cccc3c(=O)n2-c2ccccc2)c2nc[nH]c2n1 [Example 56, (S)-2-(1-(2-Amino-9H-purin-6-yl)pyrrolidin-2-yl)-3-phenyl pyrrolo[1,2-f][1,2,4]triazin-4(3H)-one] | 15 nM | –
O=c1c2cccn2nc([C@H](CO)Nc2ncnc3[nH]cnc23)n1-c1ccccc1 [Example 62, (R)-2-(1-(9H-Purin-6-ylamino)-2-hydroxyethyl)-3-phenylpyrrolo[1,2-f][1,2,4]triazin-4(3H)-one] | 73 nM | –
Cc1ccc2c(=O)n(-c3ccccc3)c([C@H](C)Nc3ncnc(N)c3C#N)nn12 [Example 71, (S)-4-Amino-6-(1-(7-methyl-4-oxo-3-phenyl-3,4-dihydropyrrolo[1,2-f][1,2,4]triazin-2-yl)ethylamino)pyrimidine-5-carbonitrile] | 9 nM | –
N#Cc1c(N)ncnc1N1CC(F)(F)C[C@H]1c1nn2cccc2c(=O)n1-c1ccccc1 [Example 73, (S)-4-Amino-6-(4,4-difluoro-2-(4-oxo-3-phenyl-3,4-dihydropyrrolo[1,2-f][1,2,4]triazin-2-yl)pyrrolidin-1-yl)pyrimidine-5-carbonitrile] | 31 nM | –
C[C@H](Nc1ncnc(N)c1C#N)c1nn2cc(F)cc2c(=O)n1-c1ccccc1 [Example 75, (S)-4-Amino-6-(1-(6-fluoro-4-oxo-3-phenyl-3,4-dihydropyrrolo[1,2-f][1,2,4]triazin-2-yl)ethylamino)pyrimidine-5-carbonitrile] | 17 nM | –
C[C@H](Nc1ncnc2[nH]cc(F)c12)c1nn2cccc2c(=O)n1-c1ccccc1 [Example 81, (S)-2-(1-(5-Fluoro-7H-pyrrolo[2,3-d]pyrimidin-4-ylamino)ethyl)-3-phenylpyrrolo[1,2-f][1,2,4]triazin-4(3H)-one] | 9 nM | –
C[C@H](Nc1ncnc(N)c1C#N)c1nn2ccc(CN3CCOCC3)c2c(=O)n1-c1ccccc1 [Example 122, (S)-4-Amino-6-(1-(5-(morpholinomethyl)-4-oxo-3-phenyl-3,4-dihydropyrrolo[1,2-f][1,2,4]triazin-2-yl)ethylamino)pyrimidine-5-carbonitrile] | 2930 nM | –
C[C@H](Nc1ncnc(N)c1C#N)c1nn2cccc2c(=O)n1-c1cn[nH]c1 [Example 124, (S)-4-Amino-6-(1-(4-oxo-3-(1H-pyrazol-4-yl)-3,4-dihydropyrrolo[1,2-f][1,2,4]triazin-2-yl)ethylamino)pyrimidine-5-carbonitrile] | 11 nM | –
Cc1cc(-n2c([C@H](C)Nc3ncnc(N)c3C#N)nn3cccc3c2=O)n[nH]1 [Example 127, (S)-4-Amino-6-(1-(3-(5-methyl-1H-pyrazol-3-yl)-4-oxo-3,4-dihydropyrrolo[1,2-f][1,2,4]triazin-2-yl)ethylamino)pyrimidine-5-carbonitrile] | 89 nM | –
C[C@H](Nc1ncnc(N)c1C#N)c1nn2cccc2c(=O)n1C1CCOCC1 [Example 136, (S)-4-Amino-6-(1-(4-oxo-3-(tetrahydro-2H-pyran-4-yl)-3,4-dihydropyrrolo[1,2-f][1,2,4]triazin-2-yl)ethylamino)pyrimidine-5-carbonitrile] | 24 nM | –

The remaining lines, values ahead:

IC50 | IC50 (recombinant PI3 Kd 0.60 nM, PIP2 2 μM, ATP 20 μM, 8 min incubation) | Structure (SMILES)
11 nM | – | C[C@H](Nc1ncnc(N)c1C#N)c1nn2ccc(C(F)(F)F)c2c(=O)n1C1CCCOC1 (single isomer, unassigned) [Example 133]
18 nM | – | CC[C@H](Nc1ncnc2[nH]cnc12)c1nn2cccc2c(=O)n1-c1ccccc1 [Example 15, (S)-2-(1-(9H-Purin-6-ylamino)propyl)-3-phenylpyrrolo[1,2-f][1,2,4]triazin-4(3H)-one]
11 nM | – | C[C@H](Nc1ncnc2[nH]cnc12)c1nn2cccc2c(=O)n1-c1ccccc1 [Example 20, (S)-2-(1-(9H-Purin-6-ylamino)ethyl)-3-phenylpyrrolo[1,2-f][1,2,4]triazin-4(3H)-one]
5 nM | – | C[C@H](Nc1nc(N)nc2[nH]cnc12)c1nn2cccc2c(=O)n1-c1ccccc1 [Example 21, (S)-2-(1-(2-Amino-9H-purin-6-ylamino)ethyl)-3-phenylpyrrolo[1,2-f][1,2,4]triazin-4(3H)-one]
15 nM | – | C[C@H](Nc1ncnc2[nH]cnc12)c1nn2cccc2c(=O)n1-c1cc(F)cc(F)c1 [Example 37, (S)-2-(1-(9H-Purin-6-ylamino)ethyl)-3-(3,5-difluorophenyl)pyrrolo[1,2-f][1,2,4]triazin-4(3H)-one]
6 nM | – | C[C@H](Nc1ncnc2[nH]cnc12)c1nn2ccc(C#N)c2c(=O)n1-c1ccccc1 [Example 61, (S)-2-(1-(9H-Purin-6-ylamino)ethyl)-4-oxo-3-phenyl-3,4-dihydropyrrolo[1,2-f][1,2,4]triazine-5-carbonitrile]
69 nM | – | C[C@H](Nc1nc(N)nc2[nH]cnc12)c1nn2ccnc2c(=O)n1-c1ccccc1 [Example 64, (S)-2-(1-(2-Amino-9H-purin-6-ylamino)ethyl)-3-phenylimidazo[1,2-f][1,2,4]triazin-4(3H)-one]
1 nM | – | Cc1ccn2nc([C@H](C)Nc3ncnc4[nH]cnc34)n(-c3ccccc3)c(=O)c12 [Example 68, (S)-2-(1-(9H-Purin-6-ylamino)ethyl)-5-methyl-3-phenyl pyrrolo[1,2-f][1,2,4]triazin-4(3H)-one]
7 nM | – | C[C@H](Nc1ncnc2[nH]cnc12)c1nn2ccc(C(F)(F)F)c2c(=O)n1-c1cc(F)cc(F)c1 [Example 90, (S)-2-(1-(9H-Purin-6-ylamino)ethyl)-3-(3,5-difluorophenyl)-5-(trifluoromethyl)pyrrolo[1,2-f][1,2,4]triazin-4(3H)-one]
42 nM | – | C[C@H](Nc1ncnc(N)c1F)c1nn2ccc(C(F)F)c2c(=O)n1-c1cc(F)cc(F)c1 [Example 102, (S)-2-(1-(6-Amino-5-fluoropyrimidin-4-ylamino)ethyl)-5-(difluoromethyl)-3-(3,5-difluorophenyl)pyrrolo[1,2-f][1,2,4]triazin-4(3H)-one]
36 nM | – | C[C@H](Nc1ncnc(N)c1C#N)c1nn2ccc(C#N)c2c(=O)n1-c1cc(Cl)cc(Cl)c1 [Example 104, (S)-2-(1-(6-Amino-5-cyanopyrimidin-4-ylamino)ethyl)-3-(3,5-dichlorophenyl)-4-oxo-3,4-dihydropyrrolo[1,2-f][1,2,4]triazine-5-carbonitrile]
90 nM | – | Cc1nc(-c2ccn3nc([C@H](C)Nc4ncnc5[nH]cnc45)n(-c4cc(F)cc(F)c4)c(=O)c23)no1 [Example 125, (S)-2-(1-(9H-Purin-6-ylamino)ethyl)-3-(3,5-difluorophenyl)-5-(5-methyl-1,2,4-oxadiazol-3-yl)pyrrolo[1,2-f][1,2,4]triazin-4(3H)-one]
